Assay: Sensory evaluation of taste quality (sweetness intensity, bitter taste, lingering sweetness) of sweet solutions by trained panel
Design: species or system human
Details: closer to PC sucrose
Method: Rebaudioside A (MORITA KAGAKU KOGYO CO., LTD.) was dissolved in filtered water (ion exchange water) to prepare a 720 ppm aqueous solution of rebaudioside A, which was used as the negative control (NC) solution.
Sucrose (Mitsui DM Sugar Co., Ltd.) was dissolved in filtered water to prepare a 7.5% aqueous solution of sucrose, which was used as the positive control (PC) solution.
Sweet solutions prepared by adding each compound (naringenin (Penta Manufacturing Company), hesperetin (Xi'an International Healthcare Factory Co., Ltd.), pinocembrin (Shaanxi Ebony Biotech Co., Ltd.), γ-Glu-Val-Gly (AJINOMOTO CO., INC.), γ-Glu-Abu (AJINOMOTO CO., INC.), yeast extract containing γ-Glu-Abu, γ-nonalactone (Sigma-Aldrich Co. LLC.)) to NC solution at the concentrations indicated in Tables 1 to 5 were evaluated by sensory evaluation.
The yeast extract containing γ-Glu-Abu used in this example was a powdered yeast extract containing 7 to 13% (w/w) γ-Glu-Abu based on dry weight, which was produced in accordance with the method described in WO 2012/046731 or “Savorboost (product name) yeast extract containing γ-Glu-Abu (Asahi Group Foods, Ltd.)”. In Tables 1-4, the concentration of the yeast extract containing γ-Glu-Abu added is shown as a value converted to the amount of γ-Glu-Abu in the yeast extract.
The taste quality of the PC solution (7.5% sucrose) was scored as 10.0 points, the taste quality of the NC solution (720 ppm rebaudioside A) was scored as 1.0 points, and the sensory evaluation score for each sample was evaluated in 0.1 point increments. The taste quality was evaluated including sweetness intensity, intensity of bitter taste, and intensity of lingering sweetness. Samples with an evaluation score of 3 or higher were deemed to have a taste quality-improving effect. The evaluation was performed by a panel of four people who had received sensory evaluation training, and was conducted by blind evaluation. The average evaluation score of all panel members was calculated and addition effect was examined.
In addition, to compare with the addition effect of a single component, a theoretical additive point was calculated and compared with the evaluation score when the components were added in combination to examine the presence or absence of a synergistic effect.

[1] = 5 ppm of the flavonoid in combination with 0.3 ppm γ-Glu-Val-Gly
[2] = flavonoid in combination with γ-Glu-Abu or a yeast extract containing γ-Glu-Abu

SMILES | taste quality of rebaudioside A [1] | taste quality of rebaudioside A [2] | taste quality of rebaudioside A (combination of pinocembrin and rebaudioside A alone)
COc1ccc(C2CC(=O)c3c(O)cc(O)cc3O2)cc1O (stereo not shown) [hesperetin] | synergistically improved the taste quality of rebaudioside A | synergistically improved the taste quality of rebaudioside A | –
O=C1C[C@@H](c2ccc(O)cc2)Oc2cc(O)cc(O)c21 [naringenin] | synergistically improved the taste quality of rebaudioside A | synergistically improved the taste quality of rebaudioside A | –
O=C1CC(c2ccccc2)Oc2cc(O)cc(O)c21 (stereo not shown) [pinocembrin] | synergistically improved the taste quality of rebaudioside A | synergistically improved the taste quality of rebaudioside A | improved the taste quality of rebaudioside A
